Measured values from patent publication US8883754B2, “Method for inhibiting angiogenesis” (Ewha University—Industry Collaboration Foundation, priority 2009, dated 2014).
Where two headings read alike, the source gives them in different places.

Legend:
VEGF-VEGFR-2 signaling = settings: for VEGFR-2 activation in response to VEGF in Prx II knockdown cells: HAECs with Prx II knockdown
From the text: Sequences of the four siRNA duplexes for human Prx II were 5′-[…]-3′ (#1, SEQ ID NO. 1), 5′-[…]-3′ (#2, SEQ ID NO. 2), 5′-[…]-3′ (#3, SEQ ID NO. 3) and 5′-[…]-3′ (#4, SEQ ID NO. 4). The Prx II siRNA duplex #1 was mainly used for the study. Sequences of the four siRNA duplexes for human Prx I were 5′-[…]-3′ (#1, SEQ ID NO. 5), 5′-[…]-3′ (#2, SEQ ID NO. 6), 5′-[…]-3′ (#3, SEQ ID NO. 7) and 5′-[…]-3′ (#4, SEQ ID NO. 8); those for human GPxl, 5′-[…]-3′ (#1, SEQ ID NO. 9), 5′-[…]-3′ (#2, SEQ ID NO. 10), 5′-[…]-3′ (#3, SEQ ID NO. 11) and 5′-[…]-3′ (#4, SEQ ID NO. 12). A Prx III-specific siRNA was previously described in Chang, T. S. et al., (J Biol Chem 2004 279 (40), 41975-41984). The firefly luciferase siRNA were purchased or synthesized from Dharmacon. SiRNA duplexes for human VEGFR-1 (Cat No. sc-29319), VEGFR-2 (Cat No. sc-29318), and Prx IV (Cat. No. sc-40835) was purchased from Santa Cruz Biotechnology. The sequence of siRNA specific to human NOX4 was 5′-[…]-3′ (SEQ ID NO. 13). Human caveolin-1 siRNA, 5′-[…]-3′ (SEQ ID NO. 14) was purchased from Qiagen. Unless otherwise stated, the endothelial cells (ECs) were transfected with the siRNA duplexes for 24 hrs using lipofectamine RNAi MAXTM (Invitrogen). Then, the cells were serum-starved for an additional 18 hrs in media containing 0.5% fetal bovine serum before VEGF stimulation.
(§1) For immunoblotting, cell lysates or the immunoprecipitates were mixed with 5× Laemmli sample buffer and boiled for 5 minutes. The samples were separated on a SDS denaturing gel and then electrophoretically transferred onto nitrocellulose membranes, which were subsequently subjected to immunoblotting. In order to block non-specific binding, the membrane was reacted with TBS (Tris-buffered saline; TBST) containing 0.5% Tween-20 and 5% nonfat milk at room temperature for 1 hour. The above described blots were reacted with each primary antibody in TBST containing 5% nonfat milk or BSA at 4° C. for overnight. After washing with TBST, the blots were reacted with horseradish peroxidase-conjugated goat anti-mouse immunoglobulin (IgG; 1:5000 dilution) or goat anti-rabbit IgG (1:3000 dilution) at room temperature for 45 minutes. Protein bands were detected using an Amersham ECLTM detection system (GE healthcare). When necessary, the membranes were stripped by shaking them for 60 minutes at 37° C. in 67 mM Tris (pH 6.7), 2% SDS, 100 mM 2-mercaptoethanol and reprobed. with the appropriate pan antibody.

HAECs = experiment: VEGF-induced tube formation on Matrigel; format: cell-based, human; settings: HAECs expressing mVEGFR-2 WT or C1206S; 1 μM pretreated for 1 hr before VEGF
Experimental: For tube formation, the HAECs (50,000 cells/well) were placed on 12-well culture dishes coated with growth factor-reduced Matrigel matrix (BD Bioscience, cat #354230). Cells were cultured for 18 hrs in the EBM-2 media containing 0.5% serum medium in the presence or absence of VEGF-A (25 ng/mL). Thereafter, the cell images were taken from five random visual fields per sample and the total length of the tubes were quantitatively analyzed using an Image-Pro Plus version 6.2 (Media Cybernetics).

[1] = tested on: intracellular ROS (H2O2) level in HAECs; experiment: Detection and measurement of reactive oxygen species (CM-H2DCFDA, DCF fluorescence); format: cell-based, human; settings: for level of ROS/H2O2 elevated by the Prx II knockdown: HAECs with Prx II knockdown
Experimental: HAECs were rinsed with Endothelial Basal Medium without phenol red (EBM, Lonza) and immediately incubated with 5 μM 5,6-chloromethyl-2′,7′-dichlorodihydrofluorescein diacetate (CM-H2DCFDA) (Molecular Probe) at 37° C. for 5 minutes. After briefly washing the cell with EBM, the fluorescence images were taken by fluorescence microscope (Axiovert 200 Basic standard, Zeiss, Germany). The relative DCF fluorescence was calculated by averaging the levels of fluorescence from 50-80 cells after subtracting the background fluorescence.

VEGFR-2 RTK = biological target: T1, VEGFR-2 RTK (Homo sapiens, UniProt P35968); experiment: VEGFR-2 in vitro kinase assay on immunoprecipitates; format: cell-based
T1 construct: The VEGFR-2 was immunoprecipitated from Prx II siRNA-transfected or H2O2 (100 μM)-pretreated HAECs; endogenous in cells; host or cells: HAECs (human aortic endothelial cells)
T1 sequence (P35968 20-1356): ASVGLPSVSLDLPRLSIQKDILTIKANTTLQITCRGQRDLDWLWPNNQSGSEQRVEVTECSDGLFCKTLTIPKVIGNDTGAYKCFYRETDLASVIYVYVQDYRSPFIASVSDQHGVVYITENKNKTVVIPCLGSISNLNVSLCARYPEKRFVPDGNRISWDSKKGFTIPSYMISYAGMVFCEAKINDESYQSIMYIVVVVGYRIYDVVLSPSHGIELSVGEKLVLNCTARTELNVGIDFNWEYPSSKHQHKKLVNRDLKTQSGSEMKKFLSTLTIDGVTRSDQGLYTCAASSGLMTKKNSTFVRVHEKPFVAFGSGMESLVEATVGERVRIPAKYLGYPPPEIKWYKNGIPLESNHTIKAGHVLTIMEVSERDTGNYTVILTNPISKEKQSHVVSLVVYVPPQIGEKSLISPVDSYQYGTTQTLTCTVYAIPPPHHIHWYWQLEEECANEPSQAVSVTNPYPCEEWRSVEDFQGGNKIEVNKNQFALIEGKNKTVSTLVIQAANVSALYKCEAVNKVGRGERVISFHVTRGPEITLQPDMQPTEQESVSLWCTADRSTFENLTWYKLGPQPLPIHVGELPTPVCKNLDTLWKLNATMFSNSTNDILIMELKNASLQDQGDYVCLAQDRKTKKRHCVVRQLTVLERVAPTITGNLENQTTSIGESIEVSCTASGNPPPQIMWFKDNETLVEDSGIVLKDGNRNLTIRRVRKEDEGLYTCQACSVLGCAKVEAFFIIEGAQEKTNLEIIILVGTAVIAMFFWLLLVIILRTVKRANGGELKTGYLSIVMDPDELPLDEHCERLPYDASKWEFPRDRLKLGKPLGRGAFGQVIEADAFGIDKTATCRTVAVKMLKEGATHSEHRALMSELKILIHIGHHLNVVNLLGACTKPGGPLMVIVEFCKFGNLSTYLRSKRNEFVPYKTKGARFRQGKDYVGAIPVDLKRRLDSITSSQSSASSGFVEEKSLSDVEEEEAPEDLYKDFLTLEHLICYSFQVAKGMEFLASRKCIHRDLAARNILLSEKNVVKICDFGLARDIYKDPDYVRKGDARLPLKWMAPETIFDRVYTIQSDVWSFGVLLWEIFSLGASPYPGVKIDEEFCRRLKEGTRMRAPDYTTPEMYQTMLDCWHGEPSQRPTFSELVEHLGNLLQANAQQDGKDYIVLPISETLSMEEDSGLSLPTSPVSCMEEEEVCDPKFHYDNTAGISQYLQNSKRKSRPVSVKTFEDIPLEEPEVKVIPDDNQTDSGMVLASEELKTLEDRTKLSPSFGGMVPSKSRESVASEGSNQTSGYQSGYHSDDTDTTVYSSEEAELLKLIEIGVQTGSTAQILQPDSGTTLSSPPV
Experimental: At the appropriate time, the culture media were aspirated and cells were lysed in extraction buffer (TEB) containing 20 mM Hepes (pH 7.0), 1% Triton X-100, 150 mM NaCl, 10% glycerol, 1 mM EDTA, 2 mM EGTA, 1 mM DTT, 5 mM Na3VO4, 5 mM NaF, 1 mM AEBSF, aprotinin (5 μg/mL), and leupeptin (5 μg/mL). After brief centrifugation, the protein content of samples was quantified using the Bradford reagent (Bio-Rad). For immunoprecipitation, the resulting supernatants (120 μg proteins) were pre-cleaned with 10 μL of protein-A/G Sepharose 4 Fast Flow beads (Amersham Biosciences) for 1 hr, incubated overnight with 2 μg of the indicated antibodies, and further incubated at 4° C. for 3 hrs with 20 μL of protein-A/G Sepharose beads. Immunocomplexes were washed three times with 1 mL of TEB and then subjected to either in vitro kinase assay or immunoblotting.
The in vitro kinase assay was done as previously described in Choi, M. H. et al., (Nature 2005 435 (7040), 347-353). Briefly, the immunocomplexes precipitated with rabbit anti-flk-1(sc-504) antibody were incubated with 30 μL of kinase buffer (20 mM HEPES pH 7.5, 20 mM MgCl2, 20 mM β-glycerophosphate, and 200 μM Na3VO4) containing […] of γ-^32[P]-ATP and 0.5 μg GST-PLCγ1 at 30° C. for 10 minutes. The reaction was stopped by the addition of a SDS sample buffer. The samples were then boiled and separated on SDS denaturing gel. […]

2-cys Prxs = settings: HAECs
Experimental: as §1

## methyl-β-cyclodextrin [MβCD]
VEGF-VEGFR-2 signaling
  VEGFR-2 activation in response to VEGF in Prx II knockdown cells: restored VEGFR-2 activation

## Cc1cc(C)c(/C=C2\C(=O)Nc3ccccc32)[nH]1 [SU5416]
HAECs
  tube formation by VEGFR-2 WT and C1206S mutant: completely blocked

## 5′-GUCAACAUCCAGCUGUACC-3′ [NOX4 siRNA]
[1]
  level of ROS/H2O2 elevated by the Prx II knockdown: background level
VEGF-VEGFR-2 signaling
  VEGFR-2 activation in response to VEGF in Prx II knockdown cells: completely rescued

## VEGF
[1]; control HAECs
  increase of ROS on VEGF treatment: two-fold

## 5′-GCAUCAACUUGCAGAAAGAUU-3′ [caveolin-1 siRNA]
VEGF-VEGFR-2 signaling
  VEGFR-2 activation in response to VEGF in Prx II knockdown cells: no longer affected by the Prx II knockdown

## O[C@H](CS)[C@H](O)CS (racemic) [DTT, dithiothreitol]
VEGFR-2 RTK; VEGFR-2 immunoprecipitated from HAECs, incubated 10 minutes
  RTK activation abolished by Prx II knockdown or H2O2 treatment: fully restored

## OO [H2O2, hydrogen peroxide]
VEGFR-2 RTK; HAECs pretreated at various concentrations
  VEGF-dependent induction of VEGFR-2 RTK activation after pretreatment: suppressed VEGF-dependent induction of VEGFR-2 RTK activation in a dose-dependent manner
2-cys Prxs; micromolar concentrations up to 100 μM, 10 minutes
  hyperoxidation of 2-cys Prxs: did not induce hyperoxidation
2-cys Prxs; millimolar concentration (1 mM)
  hyperoxidation of 2-cys Prxs: only slightly induced the hyperoxidation of Prx I and Prx III, but not Prx II

B1: catalase: polyethylene glycol (PEG)-conjugated catalase, an enzyme that reduces H2O2 to H2O (protein, UniProt P00432 2-527, looked up)
Catalase: ADNRDPASDQMKHWKEQRAAQKPDVLTTGGGNPVGDKLNSLTVGPRGPLLVQDVVFTDEMAHFDRERIPERVVHAKGAGAFGYFEVTHDITRYSKAKVFEHIGKRTPIAVRFSTVAGESGSADTVRDPRGFAVKFYTEDGNWDLVGNNTPIFFIRDALLFPSFIHSQKRNPQTHLKDPDMVWDFWSLRPESLHQVSFLFSDRGIPDGHRHMNGYGSHTFKLVNANGEAVYCKFHYKTDQGIKNLSVEDAARLAHEDPDYGLRDLFNAIATGNYPSWTLYIQVMTFSEAEIFPFNPFDLTKVWPHGDYPLIPVGKLVLNRNPVNYFAEVEQLAFDPSNMPPGIEPSPDKMLQGRLFAYPDTHRHRLGPNYLQIPVNCPYRARVANYQRDGPMCMMDNQGGAPNYYPNSFSAPEHQPSALEHRTHFSGDVQRFNSANDDNVTQVRTFYLKVLNEEQRKRLCENIAGHLKDAQLFIQKKAVKNFSDVHPEYGSRIQALLDKYNEEKPKNAVHTYVQHGSHLSAREKANL
modifications: PEG
notes: polyethylene glycol (PEG)-conjugated catalase, an enzyme that reduces H2O2 to H2O
[1]
  level of ROS/H2O2 elevated by the Prx II knockdown: background level
VEGF-VEGFR-2 signaling; HAECs pretreated with PEG-catalase, increasing doses, 18 hours
  VEGF-dependent tyrosine phosphorylation: gradually decreased
